The supplement of paper PMC11451515

Assays:
Conditions in all cases: 48 h
NOMO1 [1] = test: cell viability relative to DMSO control; higher = less cytotoxic
Procedure, shortened: (§1)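 Library compounds in DMSO were pin-dosed into 1536-well plates (5 μl) holding NOMO1 or SEM (500 cells/well) or P12-Ichikawa (1000 cells/well) leukemia cells, across an 11-point threefold series of 47 μM to 0.79 nM. Each cell line had been adapted for at least four passages in each medium. CellTiter-Glo One luminescence was read after 48 h at 37°C. Viability is the per-plate percentage relative to DMSO wells, with cell-free wells as background.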

P12-Ichikawa [2] = test: as above
Procedure, shortened: as §1

SEM cells [3] = test: as above
Procedure, shortened: as §1

NOMO1 [4] = test: AUC of viability dose-response curve (% viability x log10 dose units); higher = less sensitive
Procedure, shortened: (§2)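 Viability of medium-adapted leukemia cells was measured by CellTiter-Glo One luminescence after 48 h at 37°C with library compounds in DMSO. Doses were 11 threefold steps from 47 μM to 0.79 nM, in 1536-well plates at 500 or 1000 cells/well. Signals were normalised per plate to DMSO and cell-free wells and fitted with a four-parameter log-logistic model on log10 dose. Area under the curve was integrated by trapezoidal rule, with curves exceeding full viability scaled and failed quality-control curves removed.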

P12-Ichikawa [5] = test: as above
Procedure, shortened: as §2

SEM cells [6] = test: as above
Procedure, shortened: as §2

Clc1ccc(C(c2ccccc2Cl)C(Cl)Cl)cc1 (stereo not drawn)
cell viability [%]
Conditions | NOMO1 [1] | P12-Ichikawa [2] | SEM cells [3]
HPLM + 10% dialyzed FBS, 0.000781 µM | 137 | 113 | 119
HPLM + 10% dialyzed FBS, 0.00234 µM | 124 | 119 | 116
HPLM + 10% dialyzed FBS, 0.00702 µM | 123 | 116 | 120
HPLM + 10% dialyzed FBS, 0.0211 µM | 122 | 112 | 121
HPLM + 10% dialyzed FBS, 0.0632 µM | 120 | 118 | 139
HPLM + 10% dialyzed FBS, 0.19 µM | 107 | 119 | 36.1
HPLM + 10% dialyzed FBS, 0.569 µM | 116 | 107 | 117
HPLM + 10% dialyzed FBS, 1.71 µM | 122 | 110 | 126
HPLM + 10% dialyzed FBS, 5.12 µM | 114 | 103 | 33.2
HPLM + 10% dialyzed FBS, 15.4 µM | 99.8 | 95.4 | 109
HPLM + 10% dialyzed FBS, 46.1 µM | 101 | 91.6 | 85.9
RPMI 5 mM glucose + 10% FBS, 0.000781 µM | 105 | 122 | 116
RPMI 5 mM glucose + 10% FBS, 0.00234 µM | 115 | 118 | 121
RPMI 5 mM glucose + 10% FBS, 0.00702 µM | 126 | 116 | 111
RPMI 5 mM glucose + 10% FBS, 0.0211 µM | 118 | 109 | 110
RPMI 5 mM glucose + 10% FBS, 0.0632 µM | 137 | 119 | 112
RPMI 5 mM glucose + 10% FBS, 0.19 µM | 134 | 107 | 36.7
RPMI 5 mM glucose + 10% FBS, 0.569 µM | 120 | 104 | 137
RPMI 5 mM glucose + 10% FBS, 1.71 µM | 119 | 116 | 106
RPMI 5 mM glucose + 10% FBS, 5.12 µM | 110 | 106 | 12.6
RPMI 5 mM glucose + 10% FBS, 15.4 µM | 98.2 | 103 | 97.6
RPMI 5 mM glucose + 10% FBS, 46.1 µM | 93.2 | 94.4 | 75.1
RPMI 5 mM glucose + 10% dialyzed FBS, 0.000781 µM | 106 | 122 | –
RPMI 5 mM glucose + 10% dialyzed FBS, 0.00234 µM | 115 | 120 | –
RPMI 5 mM glucose + 10% dialyzed FBS, 0.00702 µM | 129 | 109 | –
RPMI 5 mM glucose + 10% dialyzed FBS, 0.0211 µM | 106 | 112 | –
RPMI 5 mM glucose + 10% dialyzed FBS, 0.0632 µM | 111 | 116 | –
RPMI 5 mM glucose + 10% dialyzed FBS, 0.19 µM | 109 | 107 | –
RPMI 5 mM glucose + 10% dialyzed FBS, 0.569 µM | 97.1 | 106 | –
RPMI 5 mM glucose + 10% dialyzed FBS, 1.71 µM | 120 | 106 | –
RPMI 5 mM glucose + 10% dialyzed FBS, 5.12 µM | 101 | 103 | –
RPMI 5 mM glucose + 10% dialyzed FBS, 15.4 µM | 95 | 99.6 | –
RPMI 5 mM glucose + 10% dialyzed FBS, 46.1 µM | 99.4 | 97.2 | –

AUC of viability dose-response curve
Conditions | HPLM + 10% dialyzed FBS | RPMI 5 mM glucose + 10% FBS | RPMI 5 mM glucose + 10% dialyzed FBS
NOMO1 [4] | 427 | 456 | 448
P12-Ichikawa [5] | 452 | 436 | 432

N=C1S/C(=C\c2ccc(-c3ccc4c(c3)C(=O)NC4=O)o2)C(=O)N1c1ccc(Br)cc1
AUC of viability dose-response curve
Conditions | NOMO1 [4] | P12-Ichikawa [5] | SEM cells [6]
HPLM + 10% dialyzed FBS | 444 | 452 | 453
RPMI 5 mM glucose + 10% FBS | 464 | 443 | 365
RPMI 5 mM glucose + 10% dialyzed FBS | 459 | 448 | 458

CC(C)[C@]12O[C@H]1[C@@H]3O[C@@]34[C@@]5(C)CC\C6=C(COC6=O)/[C@@H]5C[C@@H]7O[C@]47[C@@H]2O
cell viability [%]
Conditions | NOMO1 [1] | P12-Ichikawa [2] | SEM cells [3]
HPLM + 10% dialyzed FBS, 0.000781 µM | 118 | 97.5 | 88.8
HPLM + 10% dialyzed FBS, 0.00234 µM | 7.83 | 9.15 | 8.24
HPLM + 10% dialyzed FBS, 0.00702 µM | 7.37 | 6.65 | 7.05
HPLM + 10% dialyzed FBS, 0.0211 µM | 6.84 | 7.98 | 7.2
HPLM + 10% dialyzed FBS, 0.0632 µM | 8.16 | 9.04 | 8.43
HPLM + 10% dialyzed FBS, 0.19 µM | 7.58 | 8.65 | 7.98
HPLM + 10% dialyzed FBS, 0.569 µM | 7.57 | 9.22 | 7.67
HPLM + 10% dialyzed FBS, 1.71 µM | 6.99 | 8.95 | 7.16
HPLM + 10% dialyzed FBS, 5.12 µM | 6.9 | 8.4 | 5.34
HPLM + 10% dialyzed FBS, 15.4 µM | 3.84 | 6.67 | 3.24
HPLM + 10% dialyzed FBS, 46.1 µM | 2.95 | 4.18 | 2.08
RPMI 5 mM glucose + 10% FBS, 0.000781 µM | 107 | 102 | 70.6
RPMI 5 mM glucose + 10% FBS, 0.00234 µM | 6.29 | 16.6 | 5.86
RPMI 5 mM glucose + 10% FBS, 0.00702 µM | 7.04 | 8.24 | 5.11
RPMI 5 mM glucose + 10% FBS, 0.0211 µM | 6.27 | 5.66 | 4.85
RPMI 5 mM glucose + 10% FBS, 0.0632 µM | 7.93 | 7.99 | 5.84
RPMI 5 mM glucose + 10% FBS, 0.19 µM | 7.51 | 8.04 | 5.43
RPMI 5 mM glucose + 10% FBS, 0.569 µM | 6.66 | 7 | 4.78
RPMI 5 mM glucose + 10% FBS, 1.71 µM | 6.58 | 6.95 | 4.12
RPMI 5 mM glucose + 10% FBS, 5.12 µM | 5 | 5.74 | 3.56
RPMI 5 mM glucose + 10% FBS, 15.4 µM | 4.13 | 4.33 | 2.23
RPMI 5 mM glucose + 10% FBS, 46.1 µM | 1.89 | 2.61 | 1.15
RPMI 5 mM glucose + 10% dialyzed FBS, 0.000781 µM | 106 | 101 | 107
RPMI 5 mM glucose + 10% dialyzed FBS, 0.00234 µM | 5.9 | 10.6 | 6.37
RPMI 5 mM glucose + 10% dialyzed FBS, 0.00702 µM | 5.75 | 8.79 | 6.75
RPMI 5 mM glucose + 10% dialyzed FBS, 0.0211 µM | 5.32 | 7.77 | 6.32
RPMI 5 mM glucose + 10% dialyzed FBS, 0.0632 µM | 6.01 | 9.01 | 7.36
RPMI 5 mM glucose + 10% dialyzed FBS, 0.19 µM | 6.39 | 8.98 | 7.3
RPMI 5 mM glucose + 10% dialyzed FBS, 0.569 µM | 5.39 | 9.99 | 6.55
RPMI 5 mM glucose + 10% dialyzed FBS, 1.71 µM | 5.08 | 9.74 | 6.33
RPMI 5 mM glucose + 10% dialyzed FBS, 5.12 µM | 4.8 | 9.21 | 4.78
RPMI 5 mM glucose + 10% dialyzed FBS, 15.4 µM | 3.96 | 6.99 | 3.05
RPMI 5 mM glucose + 10% dialyzed FBS, 46.1 µM | 2.22 | 5.18 | 2.21

AUC of viability dose-response curve
Conditions | HPLM + 10% dialyzed FBS | RPMI 5 mM glucose + 10% FBS | RPMI 5 mM glucose + 10% dialyzed FBS
NOMO1 [4] | 49.2 | 49 | 45.7
P12-Ichikawa [5] | 59 | 56.8 | 62.8
